Target: Multidrug resistance-associated protein 1 (Homo sapiens, UniProt P33527)
Assay: TP_TRANSPORTER: inhibition of LTC4 uptake (LTC4: 0.00134 uM, MS-209: 3 uM) in membrane vesicles from MKN45R0.8 cells
Type: functional, cell membranes, Membrane vesicle
Set-up: scale not given: the % may be the effect or the level left
Conditions: mkn45r0.8, 3 µM

Sequence of Multidrug resistance-associated protein 1 (P33527 whole entry): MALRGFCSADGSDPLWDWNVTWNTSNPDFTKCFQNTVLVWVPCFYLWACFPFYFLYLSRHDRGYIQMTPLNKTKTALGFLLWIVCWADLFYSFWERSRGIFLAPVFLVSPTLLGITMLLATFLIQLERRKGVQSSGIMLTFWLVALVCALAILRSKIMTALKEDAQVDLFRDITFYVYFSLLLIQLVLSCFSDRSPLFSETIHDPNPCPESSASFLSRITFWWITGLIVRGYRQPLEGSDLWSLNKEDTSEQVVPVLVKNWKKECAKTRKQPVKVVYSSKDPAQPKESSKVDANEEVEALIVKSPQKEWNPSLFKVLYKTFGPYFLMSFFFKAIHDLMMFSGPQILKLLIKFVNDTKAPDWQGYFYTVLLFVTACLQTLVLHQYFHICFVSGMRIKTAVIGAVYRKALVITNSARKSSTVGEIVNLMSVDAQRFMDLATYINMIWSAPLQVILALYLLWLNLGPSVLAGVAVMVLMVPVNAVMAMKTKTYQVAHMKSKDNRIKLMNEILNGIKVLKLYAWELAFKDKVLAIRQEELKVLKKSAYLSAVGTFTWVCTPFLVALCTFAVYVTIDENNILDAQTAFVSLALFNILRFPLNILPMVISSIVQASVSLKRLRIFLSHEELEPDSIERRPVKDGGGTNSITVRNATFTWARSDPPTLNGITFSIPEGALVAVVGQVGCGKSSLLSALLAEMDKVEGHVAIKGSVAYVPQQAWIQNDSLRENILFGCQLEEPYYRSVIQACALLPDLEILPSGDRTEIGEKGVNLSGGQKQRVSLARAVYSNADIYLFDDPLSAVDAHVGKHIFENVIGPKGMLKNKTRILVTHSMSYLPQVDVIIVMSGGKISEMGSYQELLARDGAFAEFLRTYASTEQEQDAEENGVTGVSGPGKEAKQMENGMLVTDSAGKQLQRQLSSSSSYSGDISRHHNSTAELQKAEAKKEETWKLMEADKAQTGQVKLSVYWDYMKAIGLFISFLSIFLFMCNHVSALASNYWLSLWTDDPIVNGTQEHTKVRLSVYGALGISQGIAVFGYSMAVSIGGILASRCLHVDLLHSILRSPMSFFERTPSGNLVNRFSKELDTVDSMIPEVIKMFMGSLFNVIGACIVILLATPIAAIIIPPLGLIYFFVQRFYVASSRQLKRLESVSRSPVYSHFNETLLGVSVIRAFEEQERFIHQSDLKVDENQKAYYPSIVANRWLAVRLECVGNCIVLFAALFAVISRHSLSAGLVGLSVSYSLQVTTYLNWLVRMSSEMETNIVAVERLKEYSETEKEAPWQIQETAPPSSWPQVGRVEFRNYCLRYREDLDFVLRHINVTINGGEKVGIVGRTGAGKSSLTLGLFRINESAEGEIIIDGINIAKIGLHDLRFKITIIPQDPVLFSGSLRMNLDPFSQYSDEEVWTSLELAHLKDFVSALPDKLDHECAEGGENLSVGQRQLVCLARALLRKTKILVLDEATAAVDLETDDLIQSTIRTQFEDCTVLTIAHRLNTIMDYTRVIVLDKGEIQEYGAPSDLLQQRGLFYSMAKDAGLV

O=C(C(c1ccccc1)c1ccccc1)N1CCN(C[C@@H](O)COc2cccc3ncccc23)CC1
Activity: 20%

— ChEMBL document CHEMBL2074028, “Direct interaction between a quinoline derivative, MS-209, and multidrug resistance protein (MRP) in human gastric cancer cells” (Biochem Biophys Res Commun, 1999)
